Reference: publication PMC11274453, “Structural and Thermodynamic Insights into Dimerization Interfaces of Drosophila Glutathione Transferases” (Biomolecules, 2024)

Tests used:
DmGSTE1 [1] = biological target: T1, DmGSTE1 (Drosophila melanogaster, UniProt Q7KK90); test: spectrophotometric CDNB conjugation, […] nm, Michaelis-Menten fit; type: biochemical; conditions: 2 mM GSH; 100 mM sodium phosphate pH 6.5; 25 °C; 50 nM enzyme
T1 construct: gene GstE1; recombinant, codon-optimized gene in pET28a (NdeI/SacI), E. coli; homodimer; residues Ser2-Asp223 described in the structure
T1 sequence (Q7KK90 1-224): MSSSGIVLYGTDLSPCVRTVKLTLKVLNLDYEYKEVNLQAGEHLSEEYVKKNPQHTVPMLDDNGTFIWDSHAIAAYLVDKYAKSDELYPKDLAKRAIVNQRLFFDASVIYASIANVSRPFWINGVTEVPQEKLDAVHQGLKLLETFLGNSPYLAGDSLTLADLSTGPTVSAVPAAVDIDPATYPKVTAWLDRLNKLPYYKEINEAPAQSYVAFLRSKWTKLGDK

DmGSTE1 [2] = biological target: T1, DmGSTE1; test: X-ray crystal structure, […] Å; type: binding; conditions: G site; mixture with reduced glutathione at equal occupancies; sulfoxide H-bonds Ser14
[3] = biological target: the molecule itself; test: crystal structure; sitting-drop vapour diffusion at 4 °C; 15 mg/mL DmGSTE1 in 20 mM Tris-HCl pH 7.4; 20% w/v PEG 8000, 100 mM MES pH 6.0, 200 mM Ca acetate; space group P212121, one dimer in the asymmetric unit; glutathione bound

O=[N+]([O-])c1ccc(Cl)c([N+](=O)[O-])c1 [CDNB, 1-chloro-2,4-dinitrobenzene]
Km (DmGSTE1 [1]): 15 ± 4 µM

N[C@@H](CCC(=O)N[C@@H](CSO)C(=O)NCC(=O)O)C(=O)O [GS8]
X-ray crystal structure, 1.80 Å (DmGSTE1 [2]): occupied by a mixture of glutathione and glutathione sulfoxide refined with equal occupancies

B1: Drosophila melanogaster GSTE1 (enzyme)
chain: T1 sequence (Q7KK90 1-224)
notes: Glutathione S-transferase E1 (Epsilon class), Drosophila melanogaster; the crystal model is described as Ser2-Tyr88 (N-terminal thioredoxin domain) and Pro89-Asp223 (C-terminal domain); Cloned in pET28a between NdeI and SacI; Crystallised with glutathione / glutathione sulfoxide in the G site; also called DmGSTE1; source: E. coli, purified (GSTrap Fast Flow, eluted with 10 mM reduced glutathione, …)
stoichiometry N [3]: 2
